Data as given in publication PMC7970798 (Computational and Structural Biotechnology Journal, 2021).
No end group written: not given here.

Biological target: PALS1 F318W (Homo sapiens, UniProt Q8N3R9, F318W)
Experiment: biochemical
Type: binding

PALS1 F318W, sequence (Q8N3R9 256-336 F318W limits assumed): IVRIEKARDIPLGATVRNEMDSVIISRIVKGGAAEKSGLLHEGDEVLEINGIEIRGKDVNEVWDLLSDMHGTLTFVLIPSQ

## VKNLNSSRVPDLLV [SARS-CoV-2, VKNLNSSRVPDLLV]
  Kd: 29 ± 4 µM
